Results reported in US20240425524A1, “SPIROTRICYCLE RIPK1 INHIBITORS AND METHODS OF USES THEREOF” (Merck Sharp & Dohme LLC, priority 2021, published 2024).

Molecular target: RIPK1 (Homo sapiens (Human), UniProt Q13546)
Assay: RIPK1-ADP-Glo Enzymatic Assay
Type: biochemical
Conditions: recombinant GST-RIPK1 kinase domain (residues 1-327), 25 nM, ten-point titration, 30 minutes pre-incubation
Description: The enzymatic activity of RIPK1 was measured using an assay derived from ADP-Glo kit (™Promega), which provides a luminescent-based ADP detection system. Specifically, the ADP generated by RIPK1 kinase was proportionally detected as luminescent signals in a homogenous fashion. In this context, the assessment of the inhibitory effect of small molecules (EC50) was measured by the effectiveness of the compounds to inhibit the ATP to ADP conversion by RIPK1.
In this assay, the potency (EC50) of each compound was determined from a ten-point (1:3 serial dilution: top compound concentration of 100000 nM) titration curve using the following outlined procedure. To each well of a white ProxiPlus 384 well-plate, 30 nL of compound (1% DMSO in final assay volume of 3 μL) was dispensed, followed by the addition of 2 μL of 1x assay buffer (25 mM Hepes 7.3, 20 mM MgCl2, 50 mM NaCl, 1 mM DTT, 0.005% Tween20, and 0.02% BSA) containing 37.5 nM of GST-RIPK1 (recombinant GST-RIPK1 kinase domain (residues 1-327) enzyme produced from baculovirus-transfected Sf21 cells: MW=62 kDa). Plates were placed in an ambient temperature humidified chamber for a 30 minutes pre-incubation with compound. Subsequently, each reaction was initiated by the addition of 1 μL 1× assay buffer containing […] dephosphorylated-MBP substrate. The final reaction in each well of 3 μL consists of 25 nM of GST-RIPK1, 300 µM ATP, and 3 μM dephosphorylated-MBP. Kinase reactions were allowed to proceed for 150 minutes prior to adding ADP-Glo reagents per Promega's outlined kit protocol. Dose-response curves were generated by plotting percent effect (% product conversion: Y-axis) vs. Logio compound concentrations (X-axis). EC50 values were calculated using a non-linear regression, four-parameters sigmoidal dose-response model and are provided for example compounds of the invention (labeled “RIPK1 EC50 (nM)” throughout the above examples).

Sequence of RIPK1 (Q13546 1-327): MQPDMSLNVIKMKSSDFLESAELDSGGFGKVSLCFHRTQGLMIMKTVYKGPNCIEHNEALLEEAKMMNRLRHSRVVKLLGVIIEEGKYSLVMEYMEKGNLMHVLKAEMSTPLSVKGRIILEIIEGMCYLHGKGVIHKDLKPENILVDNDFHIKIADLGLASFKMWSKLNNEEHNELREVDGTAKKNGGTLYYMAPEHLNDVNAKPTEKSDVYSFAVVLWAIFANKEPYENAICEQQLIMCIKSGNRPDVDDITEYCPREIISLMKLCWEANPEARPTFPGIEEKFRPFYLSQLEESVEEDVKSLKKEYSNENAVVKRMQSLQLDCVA

Row | EC50 [nM] | Structure (SMILES)
1 | 555 | CNC(=O)c1cc(N2CCC3(CC2)CN2CC[C@@H](c4cc(F)cc(F)c4)N2C3=O)ncn1 [Example 1.86, (S)-6-(7′-(3,5-difluorophenyl)-1′-oxodihydro-1′H,3′H,5′H-spiro[piperidine-4,2′-pyrazolo[1,2-a]pyrazol]-1-yl)-N-methylpyrimidine-4-carboxamide]
2 | 158 | Cc1c(F)cccc1C(=O)N1CCC2(CC1)CN1CC[C@@H](c3cc(F)cc(F)c3)N1C2=O [Example 4.8, (S)-7′-(3,5-difluorophenyl)-1-(3-fluoro-2-methylbenzoyl)dihydro-1′H,3′H,5′H-spiro[piperidine-4,2′-pyrazolo[1,2-a]pyrazol]-l′-one]
3 | 15 | Cc1nc(N2CCC3(CC2)CN2CC[C@@H](c4cc(F)cc(F)c4)N2C3=O)ncc1OC(F)F [Example 1.26, (S)-1-(5-(difluoromethoxy)-4-methylpyrimidin-2-yl)-7′-(3,5-difluorophenyl)dihydro-1′H,3′H,5′H-spiro [piperidine-4,2′-pyrazolo[1,2-a]pyrazol]-1′-one]
4 | 91 | O=C1N2[C@H](c3cc(F)cc(F)c3)CCN2CC12CCN(c1nccc(C(F)(F)F)n1)CC2 [Example 1.92, (S)-7′-(3,5-difluorophenyl)-1-(4-(trifluoromethyl)pyrimidin-2-yl)dihydro-1′H,3′H,5′H-spiro[piperidine-4,2′-pyrazolo[1,2-a]pyrazol]-1′-one]
5 | 43 | Cc1nc(N2CCC3(CC2)CN2CC[C@@H](c4cc(F)cc(F)c4)N2C3=O)ccc1F [Example 11.2, (S)-7′-(3,5-difluorophenyl)-1-(5-fluoro-6-methylpyridin-2-yl)dihydro-1′H,3′H,5′H-spiro[piperidine-4,2′-pyrazolo[1,2-a]pyrazol]-l′-one]
6 | 68 | COc1nc(N2CCC3(CC2)CN2CC[C@@H](c4cc(F)cc(F)c4)N2C3=O)ncc1C [Example 1.23, (S)-7′-(3,5-difluorophenyl)-1-(4-methoxy-5-methylpyrimidin-2-yl)dihydro-1′H,3′H,5′H-spiro[piperidine-4,2′-pyrazolo[1,2-a]pyrazol]-1′-one]
7 | 18 | CC(C)Oc1cc(N2CCC3(CC2)CN2CC[C@@H](c4cc(F)cc(F)c4)N2C3=O)ncc1C#N [Example 1.59, (S)-6-(7′-(3,5-difluorophenyl)-1′-oxodihydro-1′H,3′H,5′H-spiro[piperidine-4,2′-pyrazolo[1,2-a]pyrazol]-1-yl)-4-isopropoxynicotinonitrile]
8 | 28 | COc1cc(N2CCC3(CC2)CN2CC[C@@H](c4cc(F)cc(F)c4)N2C3=O)ncn1 [Example 1.83, (S)-7′-(3,5-difluorophenyl)-1-(6-methoxypyrimidin-4-yl)dihydro-1′H,3′H,5′H-spiro[piperidine-4,2′-pyrazolo[1,2-a]pyrazol]-1′-one]
9 | 858 | N#Cc1ccc(C(=O)N2CCC3(CC2)CN2CC[C@@H](c4cc(F)cc(F)c4)N2C3=O)cc1F [Example 4.15, (S)-4-(7′-(3,5-difluorophenyl)-1′-oxodihydro-1′H,3′H,5′H-spiro[piperidine-4,2′-pyrazolo[1,2-a]pyrazole]-1-carbonyl)-2-fluorobenzonitrile]
10 | 48 | Cc1cc(-c2cncs2)nc(N2CCC3(CC2)CN2CC[C@@H](c4cc(F)cc(F)c4)N2C3=O)c1 [Example 2.23, (S)-7′-(3,5-difluorophenyl)-1-(4-methyl-6-(thiazol-5-yl)pyridin-2-yl)dihydro-1′H,3′H,5′H-spiro[piperidine-4,2′-pyrazolo[1,2-a]pyrazol]-1′-one]
11 | 54 | N#Cc1cc(Cl)nc(N2CCC3(CC2)CN2CC[C@@H](c4cc(F)cc(F)c4)N2C3=O)c1 [Example 1.52, (S)-2-chloro-6-(7′-(3,5-difluorophenyl)-1′-oxodihydro-1′H,3′H,5′H-spiro[piperidine-4,2′-pyrazolo[1,2-a]pyrazol]-1-yl)isonicotinonitrile]
12 | 83 | O=C1N2[C@H](c3cc(F)cc(F)c3)CCN2CC12CCN(c1cccc(C(F)(F)F)n1)CC2 [Example 1.63, (S)-7′-(3,5-difluorophenyl)-1-(6-(trifluoromethyl)pyridin-2-yl)dihydro-1′H,3′H,5′H-spiro[piperidine-4,2′-pyrazolo[1,2-a]pyrazol]-1′-one]
13 | 86 | COc1ccnc(N2CCC3(CC2)CN2CC[C@@H](c4cc(F)cc(F)c4)N2C3=O)n1 [Example 1.95, (S)-7′-(3,5-difluorophenyl)-1-(4-methoxypyrimidin-2-yl)dihydro-1′H,3′H,5′H-spiro[piperidine-4,2′-pyrazolo[1,2-a]pyrazol]-1′-one]
14 | 27 | O=C1N2[C@H](c3cc(F)cc(F)c3)CCN2CC12CCN(c1cc(-n3ccnc3)ncn1)CC2 [Example 1.18, (S)-1-(6-(1H-imidazol-1-yl)pyrimidin-4-yl)-7′-(3,5-difluorophenyl)dihydro-1′H,3′H,5′H-spiro[piperidine-4,2′-pyrazolo[1,2-a]pyrazol]-1′-one]
15 | 15 | Cn1nccc1-c1cc(N2CCC3(CC2)CN2CC[C@@H](c4cc(F)cc(F)c4)N2C3=O)ncn1 [Example 1.21, (S)-7′-(3,5-difluorophenyl)-1-(6-(1-methyl-1H-pyrazol-5-yl)pyrimidin-4-yl)dihydro-1′H,3′H,5′H-spiro[piperidine-4,2′-pyrazolo[1,2-a]pyrazol]-l′-one]
16 | 274 | Cc1cc(N2CCC3(CC2)CN2CC[C@@H](c4cc(F)cc(F)c4)N2C3=O)nc(C(F)(F)F)n1 [Example 1.44, (S)-7′-(3,5-difluorophenyl)-1-(6-methyl-2-(trifluoromethyl)pyrimidin-4-yl)dihydro-1′H,3′H,5′H-spiro[piperidine-4,2′-pyrazolo[1,2-a]pyrazol]-1′-one]
17 | 750 | Cn1cnc(N2CCC3(CC2)CN2CC[C@@H](c4cc(F)cc(F)c4)N2C3=O)cc1=O [Example 1.91, (S)-7′-(3,5-difluorophenyl)-1-(1-methyl-6-oxo-1,6-dihydropyrimidin-4-yl)dihydro-1′H,3′H,5′H-spiro [piperidine-4,2′-pyrazolo[1,2-a]pyrazol]-1′-one]
18 | 30 | COc1nccc(N2CCC3(CC2)CN2CC[C@@H](c4cc(F)cc(F)c4)N2C3=O)n1 [Example 1.84, (S)-7′-(3,5-difluorophenyl)-1-(2-methoxypyrimidin-4-yl)dihydro-1′H,3′H,5′H-spiro[piperidine-4,2′-pyrazolo[1,2-a]pyrazol]-1′-one]
19 | 64 | N#Cc1ccc(N2CCC3(CC2)CN2CC[C@@H](c4cc(F)cc(F)c4)N2C3=O)nc1 [Example 1.50, (S)-6-(7′-(3,5-difluorophenyl)-1′-oxodihydro-1′H,3′H,5′H-spiro[piperidine-4,2′-pyrazolo[1,2-a]pyrazol]-1-yl)nicotinonitrile]
20 | 29 | O=C1N2[C@H](c3cc(F)cc(F)c3)CCN2CC12CCN(c1cccc(F)n1)CC2 [Example 1.12, (7′S)-7′-(3,5-difluorophenyl)-1-(6-fluoropyridin-2-yl)dihydro-1′H,3′H,5′H-spiro[piperidine-4,2′-pyrazolo[1,2-a]pyrazol]-1′-one]
21 | 321 | O=C1N2[C@H](c3cc(F)cc(F)c3)CCN2CC12CCN(c1ncc(C3CC3)cn1)CC2 [Example 1.56, (S)-1-(5-cyclopropylpyrimidin-2-yl)-7′-(3,5-difluorophenyl)dihydro-1′H,3′H,5′H-spiro[piperidine-4,2′-pyrazolo[1,2-a]pyrazol]-1′-one]
22 | 27 | N#Cc1cnc(N2CCC3(CC2)CN2CC[C@@H](c4cc(F)cc(F)c4)N2C3=O)cn1 [Example 2.19, (S)-5-(7′-(3,5-difluorophenyl)-1′-oxodihydro-l′H,3′H,5′H-spiro[piperidine-4,2′-pyrazolo[1,2-a]pyrazol]-1-y1)pyrazine-2-carbonitrile]
23 | 38 | Cc1ccc(C(=O)N2CCC3(CC2)CN2CC[C@@H](c4cc(F)cc(F)c4)N2C3=O)cc1 [Example 4.3, (S)-7′-(3,5-difluorophenyl)-1-(4-methylbenzoyl)dihydro-1′H,3′H,5′H-spiro[piperidine-4,2′-pyrazolo[1,2-a]pyrazol]-l′-one]
24 | 34 | N#Cc1cccc(N2CCC3(CC2)CN2CC[C@@H](c4cc(F)cc(F)c4)N2C3=O)n1 [Example 1.58, (S)-6-(7′-(3,5-difluorophenyl)-1′-oxodihydro-1′H,3′H,5′H-spiro[piperidine-4,2′-pyrazolo[1,2-a]pyrazol]-1-yl)picolinonitrile]
25 | 20 | Cc1c(Cl)ncnc1N1CCC2(CC1)CN1CC[C@@H](c3cc(F)cc(F)c3)N1C2=O [Example 1.38, (S)-1-(6-chloro-5-methylpyrimidin-4-yl)-7′-(3,5-difluorophenyl)dihydro-1′H,3′H,5′H-spiro[piperidine-4,2′-pyrazolo[1,2-a]pyrazol]-1′-one]

Row | Structure (SMILES) | EC50 [nM]
26 | O=C(c1ccccc1)N1CCC2(CC1)CN1CC[C@@H](c3cc(F)cc(F)c3)N1C2=O [Example 5.1] | 13
